The structures appear in SMILES notation.

In the experiment the target is MAGE-A11:PCF11 (Homo sapiens (Human), UniProt P43364). As to the kind of experiment: TR-FRET single point screening at 15 μM. The format is binding. On the set-up: unit not given here. To be noted: single point TR-FRET screening of quinoline compounds against MAGE-A11:PCF11; 15 μM. The procedure, abridged: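 Competition TR-FRET: compounds at final 15 μM mixed with 200 nM FAM-PCF11_4, 5 nM GST-MAGEA11 and 5 nM Tb-anti-GST in Tris pH 7.5/MgCl2/BSA/DTT buffer, room temperature, 90 min. Emission ratio 520/490 nm (340 nm excitation) expressed as % inhibition relative to positive and negative controls.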
MAGE-A11:PCF11, sequence (P43364 218-429): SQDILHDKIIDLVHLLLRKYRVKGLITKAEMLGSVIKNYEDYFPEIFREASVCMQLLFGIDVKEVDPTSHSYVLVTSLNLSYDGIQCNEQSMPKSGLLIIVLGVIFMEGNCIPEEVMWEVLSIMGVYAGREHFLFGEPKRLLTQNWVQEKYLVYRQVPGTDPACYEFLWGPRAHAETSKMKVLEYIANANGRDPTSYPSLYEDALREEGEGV
In turn, `CCCN(CCCNc1ccnc2cc(C(F)(F)F)ccc12)Cc1ccc(CC)cc1` [SJ000521009] came in with a TR-FRET signal of 31.77.
Molecule `CCCN(CCCNc1ccnc2cc(C(F)(F)F)ccc12)Cc1nc(C)cs1` [SJ000521010] came in with a TR-FRET signal of 0.8927.
The molecule `CCCN(CCCNc1ccnc2cc(C(F)(F)F)ccc12)CCOCc1ccccc1` [SJ000521011] gave a TR-FRET signal of 25.82.
With `CCCN(CCCNc1ccnc2cc(C(F)(F)F)ccc12)Cc1ccc(OC)c(F)c1` [SJ000521013], the TR-FRET signal was found to be 21.76.
Next, `CCCN(CCCNc1ccnc2cc(C(F)(F)F)ccc12)Cc1cc(F)ccc1C` [SJ000521014]: 20.64; `CCCN(CCCNc1ccnc2cc(C(F)(F)F)ccc12)Cc1ccc(Cl)c(C(F)(F)F)c1` [SJ000521015]: 11.04; `Cn1cccc1CNCCCNc1ccnc2cc(Cl)ccc12` [SJ000521019]: 18.96.
Regarding `Cn1cc(CNCCCNc2ccnc3cc(Cl)ccc23)c2ccccc21` [SJ000521020], the TR-FRET signal came to 18.47.
Next, `COC(=O)CCCCCNCCCNc1ccnc2cc(Cl)ccc12` [SJ000521021]: 39.12; `Clc1ccc2c(NCCCNCc3nccs3)ccnc2c1` [SJ000521023]: 4.988; `CC(C)(C)CCNCCCNc1ccnc2cc(Cl)ccc12` [SJ000521026]: 9.225.
`CCCCNCCCNc1ccnc2cc(Cl)ccc12` [SJ000521027] registered a TR-FRET signal of 8.454.
Regarding `Clc1ccc2c(NCCCNCc3cc(Br)cs3)ccnc2c1` [SJ000521028], the TR-FRET signal is on record as 22.11.
For the molecule `Clc1ccc2c(NCCCNCc3cc4ccccc4o3)ccnc2c1` [SJ000521029], the TR-FRET signal was determined as 17.91.
`Clc1ccc2c(NCCCNCc3cc4ccccc4s3)ccnc2c1` [SJ000521032] returned a TR-FRET signal of 30.13.
The figure for `Clc1ccc2c(NCCCNCc3csc4ccccc34)ccnc2c1` [SJ000521033] is 33.38; for `Clc1ccc2c(NCCCNCc3nc4ccccc4s3)ccnc2c1` [SJ000521034] it is 4.695.
As for `Clc1ccc2c(NCCCNCc3cncc(Br)c3)ccnc2c1` [SJ000521037], the TR-FRET signal came out at 7.014.
Regarding `Clc1ccc2c(NCCCNCC3CCOC3)ccnc2c1` (centres unmarked) [SJ000521038], the TR-FRET signal is 0.4026.
For `Cn1ccnc1CNCCCNc1ccnc2cc(Cl)ccc12` [SJ000521040], the TR-FRET signal is reported as 1.449.
Next, `Cn1cccc1CNCCCNc1ccnc2cc(C(F)(F)F)ccc12` [SJ000521041]: −6.879; `FC(F)(F)c1ccc2c(NCCCNCc3cccnc3)ccnc2c1` [SJ000521042]: 15.04.
`Cn1cc(CNCCCNc2ccnc3cc(C(F)(F)F)ccc23)c2ccccc21` [SJ000521043] had a TR-FRET signal of 29.11.
The figure for `COC(=O)CCCCCNCCCNc1ccnc2cc(C(F)(F)F)ccc12` [SJ000521044] is 19.59.
Next, `FC(F)(F)c1ccc2c(NCCCNCc3nccs3)ccnc2c1` [SJ000521046]: 7.779; `CC(C)(C)CCNCCCNc1ccnc2cc(C(F)(F)F)ccc12` [SJ000521053]: 27.36.
In turn, `CCCCNCCCNc1ccnc2cc(C(F)(F)F)ccc12` [SJ000521055] showed a TR-FRET signal of 18.54.
Regarding `FC(F)(F)c1ccc2c(NCCCNCc3cc(Br)cs3)ccnc2c1` [SJ000521056], the TR-FRET signal is given as 32.72.
`FC(F)(F)c1ccc2c(NCCCNCc3cc4ccccc4o3)ccnc2c1` [SJ000521057] had a TR-FRET signal of 27.48.
Take `FC(F)(F)c1ccc2c(NCCCNCc3cc4ccccc4s3)ccnc2c1` [SJ000521060]: the TR-FRET signal stood at 35.63.
Consider `FC(F)(F)c1ccc2c(NCCCNCc3csc4ccccc34)ccnc2c1` [SJ000521061], for which the TR-FRET signal worked out at 41.86.
`FC(F)(F)c1ccc2c(NCCCNCc3nc4ccccc4s3)ccnc2c1` [SJ000521062] displayed a TR-FRET signal of 14.43.
